Reference: US4042695A, “Thiaxanthene derivatives, compositions thereof and methods of treating therewith” (priority 1972, dated 1977)
Structures can show the parent of a compound that is named as a salt. Where two headings read alike, the source gives them in different places.

Tests used:
rats = assay: Antagonism of amphetamine-induced stereotyped behaviour in rats; format: in vivo; conditions: 2-5 mg/kg s.c.
Experimental: The modification used by us was as follows:
The animals were then placed in individual cages. […] The absence of stereotypy was interpreted as a drug effect. ED50 values for protection against stereotypy were determined. All compounds were tested at a minimum of three dose levels using 10 rats per dose, and the observer was kept unaware of the identity of the groups until after the experiment.

male Wistar rats = assay: Catalepsy-inducing effect in rats; format: in vivo; conditions: catalepsy (rats) / methylphenidate antagonism peak effect (mice)
Experimental: (§1) Reference is made to L. Juluo: "On the Interaction between Neuroleptics and Antiparkinson Drugs." Modern Problems of Pharmacopsychiatry, vol. 5, pg, 50-54. The test may be described as follows:
(§2) Five animals are used at each dose level.
(§3) The test compound is injected subcutaneously (s.c.)
(§4) Injection volume is 5 ml of the vehicle/kg b.w.
(§5) Except when otherwise stated saline is used as vehicle.
(§6) The animals are placed in the middle of a vertical wire netting (50 cm/49 cm) 60, 120, 180, 240, 300 and 360 minutes after injection of the test compound.
(§7) The animals are considered cataleptic when they remain immobile during a period of 15 seconds. This cataleptic reaction is designated: + (plus). Untreated animals climb normally up and down the wire netting. The absence of catalepsy is designated: - (minus). The results are expressed as fractions as follows: 0/5, 1/5, 2/5, 3/5, 4/5 and 5/5 in which 0, 1, 2, 3,4 and 5 represent the number of cataleptic animals out of five animals tested.

[1] = Catalepsy-inducing effect in rats; format: in vivo, male Wistar rats; conditions: rat, in vivo, sc
Experimental: as §1, §2, §3, §4, §5, §6, §7

NMRI male mice = assay: Methylphenidate antagonism in mice; format: in vivo; conditions: mice, i.p.; for ED50: Mus musculus, ip
Experimental: 1. As animals were used NMRI male mice weighing 18-25 grams.
3 × 2 or 5 × 2 mice are used for each dose level. Thirty minutes, 1 hour, 2 hours, 3 hours etc. after i.p. injection of test substance, methylphenidate, 60 mg/kg, is injected s.c. At each time interval separate groups of mice were used. After administration of methylphenidate the mice are placed in the observation cages, 2 in each cage, where they remain for 1 hour. The cages are placed on corrugated paper, the corrugations facing upwards. It is examined whether or not the mice have been biting the corrugated paper. […] The peak effect was determined for the test substances and also for a number of known neuroleptics.

[2] = tested on: adult purebred Beagle dogs; assay: Apomorphine antagonism in dogs; format: in vivo; conditions: Canis lupus familiaris, iv, intravenously, read-out: threshold-dose for the induction of vomiting
From the text: Especially when testing esters of the compounds of Formula I it has been found advantageous to use the wellrecognized test which is based upon the fact that strong neuroleptics antagonize apomorphine induced vomiting in dogs. The test is described by P. A. J. Janssen, C. J. E. Niemegeers and K. H. L. Schellehaus: "Is it possible to predict the clinical effects of neuroleptic drugs (major tranquillizers) from animal data" ?, Part II, Arzneimittel Forschung, 15, 1196-1206, 1965. In order to evaluate esters of the compounds of Formula I a modified method is described by M. Nymark et al. in Acta pharmacol. et toxicol. 1973, 33, 363-376. The test may be described shortly as follows:
As animals were used adult purebred Beagle dogs of either sex. The threshold-dose of apomorphine hydrochloride for the induction of vomiting in the dogs has been determined to be 0.025 mg/kg intravenously. After this dose vomiting occurs within a few minutes of the injection. Four dogs were used for each dose level of the drug, which was injected subcutaneously at the back of the neck. At different times after the drug administration the dogs were then challenged with apomorphine according to an "up-and-down" schedule using the dose-range 0.025- 0.400 mg/kg intravenously geometrically spaced. […] In this way it was possible to estimate at which level of apomorphine the dogs were protected at a given time. The dogs were fed half an hour before testing to ensure an easy vomiting.

[3] = pure α-isomers of known neuroleptics; cited from earlier work
[4] = rats, s.c., dose producing catalepsy in 50% of the animals, read-out: Catalepsy ED50 max.
[5] = peak effect, methylphenidate 60 mg/kg s.c., read-out: Methylphenidate antagonism, peak effect ED50
[6] = 24 h after injection, read-out: Methylphenidate antagonism ED50, 24 h

Compound | sedation (rats) | Ratio Cat./Meth (catalepsy/methylphenidate antagonism) (male Wistar rats) | ED50 [1, 4] [mg/kg] | ED50 (NMRI male mice; [5]) [mg/kg] | ED50 (NMRI male mice; [6]) [mg/kg] | duration of peak effect (NMRI male mice) [h] | ED50 [1] [mg/kg] | minimal effective dose [2] [mg/kg] | activity of the α-isomer relative to the β-isomer (in words) [3]
CCCCCCCCCCCCCCCC(=O)OCCC1CCN(CCC=C2c3ccc(F)cc3Sc3ccc(C(F)(F)F)cc32)CC1 [palmitic acid ester of Lu 12-331, palmitic acid ester of the alpha-isomer of 2-trifluoromethyl-6-fluoro-9-(3-(4-(2-hydroxyethyl)-1-piperidyl)propylidene)-thiaxanthene] | pronounced sedation lasting for several days |  |  |  |  |  |  |  | 
OCCN1CCN(CCCC2c3cc(C(F)(F)F)ccc3Sc3c(Cl)cccc32)CC1 (stereo not shown) [Substance 9, reference compound] |  | 1.5 | > 20 | 14 |  |  |  |  | 
OCCN1CCN(CCCC2c3ccc(Cl)cc3Sc3ccc(C(F)(F)F)cc32)CC1 (stereo not shown) [Substance 8, reference compound] |  | > 5 | > 20 | 4 |  |  |  |  | 
OCCC1CCN(CCC=C2c3ccc(F)cc3Sc3ccc(Cl)cc32)CC1 [Substance 15, 2-chloro-6-fluoro-9-(3-(4-(2-hydroxyethyl)piperidin-1-yl)propylidene)thiaxanthene] |  | 0.9 | 0.07 | 0.08 | 0.27 |  |  |  | 
CN1CCN(CCC=C2c3ccc(F)cc3Sc3ccc(S(=O)(=O)N(C)C)cc32)CC1 [Substance 5, 2-dimethylsulfamoyl-6-fluoro-9-(3-(4-methylpiperazine-1-yl)propylidene)-thiaxanthene] |  | 2.5 | 1 | 0.4 | > 10 | > 5 |  |  | 
OCCN1CCN(CCC=C2c3ccc(F)cc3Sc3ccc(C(F)(F)F)cc32)CC1 [Substance 6] |  |  | 0.12 | 0.05 | 0.24 |  |  |  | 
OCCN1CCN(CCCC2c3ccc(F)cc3Sc3ccc(C(F)(F)F)cc32)CC1 (stereo not shown) [Substance 1] |  |  |  | 0.04 | 1.66 |  | 0.9 |  | 
CN1CCc2cccc3c2[C@H]1Cc1ccc(O)c(O)c1-3 [apomorphine hydrochloride, reference compound] |  |  |  |  |  |  |  | 0.025 | 
OCCC1CCN(CCCC2c3ccc(F)cc3Sc3ccc(C(F)(F)F)cc32)CC1 (stereo not shown) [Substance 14, 2-Trifluoromethyl-6-fluoro-9-(3-(4-(2-hydroxyethyl)-1-piperidyl)propyl)-thiaxanthene] |  | 0.8 | 0.21 | 0.25 | 3.6 |  |  |  | 
OCCN1CCN(CCC=C2c3ccc(F)cc3Sc3ccc(Cl)cc32)CC1 [Substance 7] |  | 5 | 2 | 0.4 | > 10 | > 5 |  |  | 
OCCN1CCN(CC/C=C2/c3ccccc3Sc3ccc(Cl)cc32)CC1 [α-Clopenthixol, reference compound] |  | 0.7 |  | 0.7 | > 40 | 5 | 0.45 |  | most active isomers
OCCN1CCN(CCCC2c3ccc(F)cc3Sc3ccc(Cl)cc32)CC1 (stereo not shown) [Substance 3, 2-chloro-6-fluoro-9-(3-(4-(2-hydroxyethyl)-1-piperazinyl)propyl)-thiaxanthene] |  | 3.4 | 2.7 | 0.8 | 7.1 | > 5 |  |  | 
